The text below walks through data of patent US6740038B2, “Systems and methods for assessing vascular effects of a treatment” (New Health Sciences, Inc., priority 2000, dated 2004).

This assay relates to cerebral vessels. The settings on record: person after first stroke, Plavix +/- calcium channel blocker. The method, then: A person with a history of hypertension experiences a first stroke in the left middle cerebral artery resulting in deficits in the right hand, leg, and some deficits in motor speech. These are the symptoms upon presentation in the neurological clinic. Transcranial Doppler analysis of all cerebral vessels is performed in addition to analyzing the common carotid artery and the internal carotid artery.
The physician considers prescription of Plavix together with a calcium channel blocker. Transcranial Doppler analysis was performed at monthly intervals. […] The physician subsequently administers a higher dose. Again, transcranial Doppler analysis is performed on all cerebral vessels.
The patient is then monitored on a monthly basis after the initial prescription of Plavix in order to determine whether vascular changes are occurring which necessitate alteration in the therapy.

As to `COC(=O)[C@H](c1ccccc1Cl)N1CCc2sccc2C1` [Plavix], for the setting “higher dose”, the auto-regulation curve entry is listed as “left-shifts toward normal”, the pulsatility index entry is on record as “decreases” and the “vascular dynamics of the vessel studied” value is “marked changes”. Besides, for the setting “initial dose, transcranial Doppler at monthly intervals”, the “changes in the individual cerebral vessels” value was “no effect”.
